# Reference: US6458748B1, “Di- or tri-fluoromethanesulfonyl anilide derivatives, process for the preparation of them and herbicides containing them as the active ingredient” (Ihara Chemical Industry Co., Ltd., priority 1998, dated 2002)
# How the values were obtained:
# [1] = tested on: Oryza sativa L. (paddy rice); assay: Test 4 injury to paddy rice; conditions: two-leaf stage seedlings, 28th day from application
# [2] = tested on: Echinochloa oryzicola vasing.; assay: Test 4 paddy pot herbicidal effect; conditions: applied next day, 28th day from application
# Sagittaria pygmaea Miq. [3] = assay: Test 4 paddy pot herbicidal effect; conditions: applied next day, 28th day from application
# Sagittaria pygmaea Miq. [4] = assay: Test 2 paddy pot herbicidal effect with water drainage and feeding; type: in vivo; conditions: water drainage and feeding 2 cm per day for two days, 28th day
# Experimental: (§1) Further, a tuber of Sagittaria pygmaea Miq. was buried. […] For two days starting from the next day, water drainage and feeding each of 2 cm in depth per day were conducted.
# [5] = tested on: Monochoria vaginalis (Burm. f.) Presl var. plantaginea (Roxb.) Solms-Laub.; assay: as above; type: in vivo; conditions: water drainage and feeding 2 cm per day for two days, 28th day
# Experimental: as §1
# [6] = tested on: Monochoria vaginalis (Burm. f.) Presl var. plantaginea (Roxb.) Solms-Laub.; assay: Test 1 paddy pot herbicidal effect, water surface application; type: in vivo; conditions: applied day after sowing, evaluated 28 days later
# From the text: (§2) Standard of herbicidal effect (level of suppression of development and growth) […] Herbicidal effect of 90% or more, injury to paddy rice […] Herbicidal effect of 70% or more to less than 90%, injury to paddy rice […] 2: […]
# [7] = tested on: Echinochloa oryzicola vasing.; assay: as above; type: in vivo; conditions: applied day after sowing, evaluated 28 days later
# From the text: as §2
# [8] = tested on: Echindchloa oryzicola Vasing. (Ec); assay: Test 5 herbicidal effect by application stage; conditions: 28th day from application
# [9] = tested on: Echinochloa oryzicola vasing.; assay: Test 3 herbicidal effect, application before germination or at 3-leaf stage; conditions: 28th day from application
# Cyperus serotinus Rottb. = assay: Test 4 paddy pot herbicidal effect; conditions: applied next day, 28th day from application
molecule,measurement,setting,value
"COc1cc(OC)nc(C(O)c2ccccc2NS(=O)(=O)C(F)(F)F)n1 (centres unmarked) [Comparative Compound, 2-[(4,6-dimethoxypyrimidine-2-yl)hydroxymethyl]-N-trifluoromethanes ulfonyl anilide, reference compound]",Injury to rice Or,[1]; 0.6 g/10 ares,"0 (Herbicidal effect of less than 10%, injury to paddy rice)"
same,Injury to rice Or,[1]; 1.3 g/10 ares,"0 (Herbicidal effect of less than 10%, injury to paddy rice)"
same,Injury to rice Or,[1]; 2.5 g/10 ares,"0 (Herbicidal effect of less than 10%, injury to paddy rice)"
same,Injury to rice Or,[1]; 5.0 g/10 ares,"1 (Herbicidal effect of 10% or more to less than 30%, injury to paddy rice)"
same,Herbicidal effect Ec,[2]; 0.6 g/10 ares,"0 (Herbicidal effect of less than 10%, injury to paddy rice)"
same,Herbicidal effect Ec,[2]; 1.3 g/10 ares,"1 (Herbicidal effect of 10% or more to less than 30%, injury to paddy rice)"
same,Herbicidal effect Ec,[2]; 2.5 g/10 ares,"2 (Herbicidal effect of 30% or more to less than 50%, injury to paddy rice)"
same,Herbicidal effect Ec,[2]; 5.0 g/10 ares,"4 (Herbicidal effect of 70% or more to less than 90%, injury to paddy rice)"
same,Herbicidal effect Sa,Sagittaria pygmaea Miq. [3]; 0.6 g/10 ares,"5 (Herbicidal effect of 90% or more, injury to paddy rice)"
same,Herbicidal effect Sa,Sagittaria pygmaea Miq. [3]; 1.3 g/10 ares,"5 (Herbicidal effect of 90% or more, injury to paddy rice)"
same,Herbicidal effect Sa,Sagittaria pygmaea Miq. [3]; 2.5 g/10 ares,"5 (Herbicidal effect of 90% or more, injury to paddy rice)"
same,Herbicidal effect Sa,Sagittaria pygmaea Miq. [3]; 5.0 g/10 ares,"5 (Herbicidal effect of 90% or more, injury to paddy rice)"
same,Herbicidal effect Sc,Sagittaria pygmaea Miq. [4]; 0.6 g/10 ares,"0 (Herbicidal effect of less than 10%, injury to paddy rice)"
same,Herbicidal effect Sc,Sagittaria pygmaea Miq. [4]; 1.3 g/10 ares,"2 (Herbicidal effect of 30% or more to less than 50%, injury to paddy rice)"
same,Herbicidal effect Sc,Sagittaria pygmaea Miq. [4]; 2.5 g/10 ares,"4 (Herbicidal effect of 70% or more to less than 90%, injury to paddy rice)"
same,Herbicidal effect Sc,Sagittaria pygmaea Miq. [4]; 5.0 g/10 ares,"5 (Herbicidal effect of 90% or more, injury to paddy rice)"
same,Herbicidal effect Ec,[5]; 0.6 g/10 ares,"0 (Herbicidal effect of less than 10%, injury to paddy rice)"
same,Herbicidal effect Ec,[5]; 1.3 g/10 ares,"1 (Herbicidal effect of 10% or more to less than 30%, injury to paddy rice)"
same,Herbicidal effect Ec,[5]; 2.5 g/10 ares,"3 (Herbicidal effect of 50% or more to less than 70%, injury to paddy rice)"
same,Herbicidal effect Ec,[5]; 5.0 g/10 ares,"5 (Herbicidal effect of 90% or more, injury to paddy rice)"
same,Herbicidal effect Mo,[6]; 0.4 g/10 ares,"4 (Herbicidal effect of 70% or more to less than 90%, injury to paddy rice)"
same,Herbicidal effect Mo,[6]; 1.6 g/10 ares,"5 (Herbicidal effect of 90% or more, injury to paddy rice)"
same,Herbicidal effect Mo,[6]; 6.3 g/10 ares,"5 (Herbicidal effect of 90% or more, injury to paddy rice)"
same,Herbicidal effect Mo,[6]; 25.0 g/10 ares,"5 (Herbicidal effect of 90% or more, injury to paddy rice)"
same,Herbicidal effect Ec,[7]; 0.4 g/10 ares,"0 (Herbicidal effect of less than 10%, injury to paddy rice)"
same,Herbicidal effect Ec,[7]; 1.6 g/10 ares,"1 (Herbicidal effect of 10% or more to less than 30%, injury to paddy rice)"
same,Herbicidal effect Ec,[7]; 6.3 g/10 ares,"3 (Herbicidal effect of 50% or more to less than 70%, injury to paddy rice)"
same,Herbicidal effect Ec,[7]; 25.0 g/10 ares,"4 (Herbicidal effect of 70% or more to less than 90%, injury to paddy rice)"
same,Herbicidal effect (Ec) Application stage 1-leaf,[8]; 1.3 g/10 ares,"0 (Herbicidal effect of less than 10%, injury to paddy rice)"
same,Herbicidal effect (Ec) Application stage 2-leaf,[8]; 1.3 g/10 ares,"0 (Herbicidal effect of less than 10%, injury to paddy rice)"
same,Herbicidal effect (Ec) Application stage 3-leaf,[8]; 1.3 g/10 ares,"0 (Herbicidal effect of less than 10%, injury to paddy rice)"
same,Herbicidal effect (Ec) Application stage 1-leaf,[8]; 2.5 g/10 ares,"1 (Herbicidal effect of 10% or more to less than 30%, injury to paddy rice)"
same,Herbicidal effect (Ec) Application stage 2-leaf,[8]; 2.5 g/10 ares,"0 (Herbicidal effect of less than 10%, injury to paddy rice)"
same,Herbicidal effect (Ec) Application stage 3-leaf,[8]; 2.5 g/10 ares,"0 (Herbicidal effect of less than 10%, injury to paddy rice)"
same,Herbicidal effect (Ec) Application stage 1-leaf,[8]; 5.0 g/10 ares,"3 (Herbicidal effect of 50% or more to less than 70%, injury to paddy rice)"
same,Herbicidal effect (Ec) Application stage 2-leaf,[8]; 5.0 g/10 ares,"2 (Herbicidal effect of 30% or more to less than 50%, injury to paddy rice)"
same,Herbicidal effect (Ec) Application stage 3-leaf,[8]; 5.0 g/10 ares,"2 (Herbicidal effect of 30% or more to less than 50%, injury to paddy rice)"
same,Herbicidal effect (Ec) Application at 3-leaf stage,[9]; 0.3 g/10 ares,"0 (Herbicidal effect of less than 10%, injury to paddy rice)"
same,Herbicidal effect (Ec) Application before germination,[9]; 0.3 g/10 ares,"0 (Herbicidal effect of less than 10%, injury to paddy rice)"
same,Herbicidal effect (Ec) Application at 3-leaf stage,[9]; 0.6 g/10 ares,"0 (Herbicidal effect of less than 10%, injury to paddy rice)"
same,Herbicidal effect (Ec) Application before germination,[9]; 0.6 g/10 ares,"0 (Herbicidal effect of less than 10%, injury to paddy rice)"
same,Herbicidal effect (Ec) Application at 3-leaf stage,[9]; 1.3 g/10 ares,"0 (Herbicidal effect of less than 10%, injury to paddy rice)"
same,Herbicidal effect (Ec) Application before germination,[9]; 1.3 g/10 ares,"1 (Herbicidal effect of 10% or more to less than 30%, injury to paddy rice)"
same,Herbicidal effect (Ec) Application at 3-leaf stage,[9]; 2.5 g/10 ares,"0 (Herbicidal effect of less than 10%, injury to paddy rice)"
same,Herbicidal effect (Ec) Application before germination,[9]; 2.5 g/10 ares,"2 (Herbicidal effect of 30% or more to less than 50%, injury to paddy rice)"
same,Herbicidal effect (Ec) Application at 3-leaf stage,[9]; 5.0 g/10 ares,"1 (Herbicidal effect of 10% or more to less than 30%, injury to paddy rice)"
same,Herbicidal effect (Ec) Application before germination,[9]; 5.0 g/10 ares,"3 (Herbicidal effect of 50% or more to less than 70%, injury to paddy rice)"
same,Herbicidal effect Cy,Cyperus serotinus Rottb.; 0.6 g/10 ares,"5 (Herbicidal effect of 90% or more, injury to paddy rice)"
same,Herbicidal effect Cy,Cyperus serotinus Rottb.; 1.3 g/10 ares,"5 (Herbicidal effect of 90% or more, injury to paddy rice)"
same,Herbicidal effect Cy,Cyperus serotinus Rottb.; 2.5 g/10 ares,"5 (Herbicidal effect of 90% or more, injury to paddy rice)"
same,Herbicidal effect Cy,Cyperus serotinus Rottb.; 5.0 g/10 ares,"5 (Herbicidal effect of 90% or more, injury to paddy rice)"
"2-[(4,6-dimethoxypyrimidine-2-yl)hydroxymethyl]-6-methoxymethyltrifluoromethanesulfonyl anilide [Example 4]",Herbicidal effect Ec,[2]; 0.6 g/10 ares,"2 (Herbicidal effect of 30% or more to less than 50%, injury to paddy rice)"
same,Herbicidal effect Ec,[2]; 1.3 g/10 ares,"4 (Herbicidal effect of 70% or more to less than 90%, injury to paddy rice)"
same,Herbicidal effect Ec,[2]; 2.5 g/10 ares,"5 (Herbicidal effect of 90% or more, injury to paddy rice)"
same,Herbicidal effect Ec,[2]; 5.0 g/10 ares,"5 (Herbicidal effect of 90% or more, injury to paddy rice)"
same,Herbicidal effect Sa,Sagittaria pygmaea Miq. [3]; 0.6 g/10 ares,"4 (Herbicidal effect of 70% or more to less than 90%, injury to paddy rice)"
same,Herbicidal effect Sa,Sagittaria pygmaea Miq. [3]; 1.3 g/10 ares,"5 (Herbicidal effect of 90% or more, injury to paddy rice)"
same,Herbicidal effect Sa,Sagittaria pygmaea Miq. [3]; 2.5 g/10 ares,"5 (Herbicidal effect of 90% or more, injury to paddy rice)"
same,Herbicidal effect Sa,Sagittaria pygmaea Miq. [3]; 5.0 g/10 ares,"5 (Herbicidal effect of 90% or more, injury to paddy rice)"
same,Herbicidal effect Mo,[6]; 0.4 g/10 ares,"3 (Herbicidal effect of 50% or more to less than 70%, injury to paddy rice)"
same,Herbicidal effect Mo,[6]; 1.6 g/10 ares,"5 (Herbicidal effect of 90% or more, injury to paddy rice)"
same,Herbicidal effect Mo,[6]; 6.3 g/10 ares,"5 (Herbicidal effect of 90% or more, injury to paddy rice)"
same,Herbicidal effect Mo,[6]; 25.0 g/10 ares,"5 (Herbicidal effect of 90% or more, injury to paddy rice)"
same,Herbicidal effect Ec,[7]; 0.4 g/10 ares,"2 (Herbicidal effect of 30% or more to less than 50%, injury to paddy rice)"
same,Herbicidal effect Ec,[7]; 1.6 g/10 ares,"5 (Herbicidal effect of 90% or more, injury to paddy rice)"
same,Herbicidal effect Ec,[7]; 6.3 g/10 ares,"5 (Herbicidal effect of 90% or more, injury to paddy rice)"
same,Herbicidal effect Ec,[7]; 25.0 g/10 ares,"5 (Herbicidal effect of 90% or more, injury to paddy rice)"
same,Herbicidal effect (Ec) Application stage 1-leaf,[8]; 1.3 g/10 ares,"4 (Herbicidal effect of 70% or more to less than 90%, injury to paddy rice)"
same,Herbicidal effect (Ec) Application stage 2-leaf,[8]; 1.3 g/10 ares,"3 (Herbicidal effect of 50% or more to less than 70%, injury to paddy rice)"
same,Herbicidal effect (Ec) Application stage 3-leaf,[8]; 1.3 g/10 ares,"3 (Herbicidal effect of 50% or more to less than 70%, injury to paddy rice)"
same,Herbicidal effect (Ec) Application stage 1-leaf,[8]; 2.5 g/10 ares,"5 (Herbicidal effect of 90% or more, injury to paddy rice)"
same,Herbicidal effect (Ec) Application stage 2-leaf,[8]; 2.5 g/10 ares,"5 (Herbicidal effect of 90% or more, injury to paddy rice)"
same,Herbicidal effect (Ec) Application stage 3-leaf,[8]; 2.5 g/10 ares,"5 (Herbicidal effect of 90% or more, injury to paddy rice)"
same,Herbicidal effect (Ec) Application stage 1-leaf,[8]; 5.0 g/10 ares,"5 (Herbicidal effect of 90% or more, injury to paddy rice)"
same,Herbicidal effect (Ec) Application stage 2-leaf,[8]; 5.0 g/10 ares,"5 (Herbicidal effect of 90% or more, injury to paddy rice)"
same,Herbicidal effect (Ec) Application stage 3-leaf,[8]; 5.0 g/10 ares,"5 (Herbicidal effect of 90% or more, injury to paddy rice)"
same,Herbicidal effect Cy,Cyperus serotinus Rottb.; 0.6 g/10 ares,"4 (Herbicidal effect of 70% or more to less than 90%, injury to paddy rice)"
same,Herbicidal effect Cy,Cyperus serotinus Rottb.; 1.3 g/10 ares,"5 (Herbicidal effect of 90% or more, injury to paddy rice)"
same,Herbicidal effect Cy,Cyperus serotinus Rottb.; 2.5 g/10 ares,"5 (Herbicidal effect of 90% or more, injury to paddy rice)"
same,Herbicidal effect Cy,Cyperus serotinus Rottb.; 5.0 g/10 ares,"5 (Herbicidal effect of 90% or more, injury to paddy rice)"
